Results taken from a compilation of properties of binary mixtures (doi:10.1016/j.jct.2017.07.022).

Assay: xn = mol fraction of the nth substance listed
Conditions: 100 kPa

CC[n+]1ccccc1.N#C[N-]C#N + CC(C)O
viscosity [mPa·s]
Conditions	x2 = 0	x2 = 0.1055	x2 = 0.1999	x2 = 0.2997	x2 = 0.4023	x2 = 0.499	x2 = 0.5998	x2 = 0.7006	x2 = 0.8007	x2 = 0.8997
288.15 K	25.9	21.3	18.3	–	12.3	10	8.04	6.15	4.78	3.75
293.15 K	22.1	–	15.6	12.9	10.7	8.68	7.02	5.39	4.18	3.28
298.15 K	18.9	15.6	13.4	11.2	–	7.61	6.19	4.77	3.7	2.89
303.15 K	16.4	13.5	11.6	9.83	8.17	6.72	–	4.24	3.29	2.55
308.15 K	14.3	11.7	10.1	8.69	7.24	6	4.91	–	2.95	–
313.15 K	–	10.3	8.9	7.72	6.47	5.38	–	–	–	2.03
318.15 K	11	9.08	7.9	6.92	5.82	4.85	–	–	2.41	1.83

CC[n+]1ccccc1.N#C[N-]C#N + CCCO
viscosity [mPa·s]
Conditions	x2 = 0	x2 = 0.1095	x2 = 0.1947	x2 = 0.3011	x2 = 0.4029	x2 = 0.5008	x2 = 0.6003	x2 = 0.702	x2 = 0.8012	x2 = 0.9
288.15 K	25.9	–	–	15.2	12	9.7	7.73	5.99	–	3.48
293.15 K	–	17.7	15.3	–	10.4	8.45	6.78	5.28	–	3.09
298.15 K	18.9	15.3	13.1	11.7	9.11	–	6	4.7	3.61	–
303.15 K	16.4	13.2	11.3	10.3	–	6.6	5.34	–	3.24	2.48
308.15 K	14.3	11.4	–	9.11	7.14	–	4.79	3.78	–	–
313.15 K	12.5	9.9	–	8.13	6.39	–	4.33	3.42	2.65	2.03
318.15 K	–	8.74	7.85	7.35	5.76	–	3.93	–	2.42	–

CC[n+]1ccccc1.N#C[N-]C#N + CCO
viscosity [mPa·s]
Conditions	x2 = 0	x2 = 0.1008	x2 = 0.1974	x2 = 0.3008	x2 = 0.3994	x2 = 0.5058	x2 = 0.5994	x2 = 0.6996	x2 = 0.7999	x2 = 0.9011
288.15 K	–	–	16.8	13.4	10.5	7.99	6.13	4.66	3.05	2.24
293.15 K	22.1	–	14.4	11.7	9.23	7.07	5.46	4.22	2.78	2.02
298.15 K	–	15.4	–	–	8.19	6.31	4.91	3.85	–	1.86
303.15 K	16.4	13.3	10.9	9.23	7.34	5.69	4.47	3.49	2.31	–
308.15 K	14.3	11.5	9.58	8.28	6.61	–	4.08	3.19	2.12	1.55
313.15 K	12.5	10.1	8.51	7.45	–	–	–	–	1.94	1.42
318.15 K	11	–	7.62	6.74	–	4.31	3.44	2.68	1.79	1.31

CC(C)O + CC[n+]1ccccc1.N#C[N-]C#N
x1 = 1
Conditions	viscosity [mPa·s]
288.15 K	2.83
293.15 K	2.42
298.15 K	2.08
303.15 K	1.8
308.15 K	1.56
313.15 K	1.33
318.15 K	1.17

CCCO + CC[n+]1ccccc1.N#C[N-]C#N
x1 = 1
Conditions	viscosity [mPa·s]
293.15 K	2.22
298.15 K	1.97
303.15 K	1.75
308.15 K	1.56
313.15 K	1.36
318.15 K	1.23

CCO + CC[n+]1ccccc1.N#C[N-]C#N
x1 = 1
Conditions	viscosity [mPa·s]
293.15 K	1.17
298.15 K	1.07
303.15 K	0.975
308.15 K	0.89
313.15 K	0.815
318.15 K	0.747
